The subject of assay [1] is FAM-labeled CBA-1 (DNA, aptamer) CCCCCTGGGTCGGGAGGGAAGGGGGTTGGGGGTGCGGG
Briefly: DMS footprinting. Particulars: 140 mM NaCl, 2.5 mM KCl, K/Na phosphate (PBS), 2.5 mM MgCl2; binding buffer, room temperature.

Assay [2] concerns CBA-1-G14A (DNA, aptamer) CCCCCTGGGTCGGAAGGGAAGGGGGTTGGGGGTGCGGG
Briefly: ITC. The note with it: 140 mM NaCl, 2.5 mM KCl, K/Na phosphate (PBS), 2.5 mM MgCl2; PBS with MgCl2, pH 7.4, 25 °C.

The subject of assay [3] is CBA-1-GGC (DNA, aptamer) CCCCCCCCTGGGTCGGGAGGGAAGGGGGGGGTTGGGGGGGGTGCGGG
Briefly: ITC. The note with it: 140 mM NaCl, 2.5 mM KCl, K/Na phosphate (PBS), 2.5 mM MgCl2; PBS with MgCl2, pH 7.4, 25 °C.

Assay [4] relates to CBA-1-AAT (DNA, aptamer) TTTCCCCCTGGGTCGGGAGGGAAGGGGGAAATTAAAGGGGGTGCGGG
Put plainly: ITC. Particulars: 140 mM NaCl, 2.5 mM KCl, K/Na phosphate (PBS), 2.5 mM MgCl2; PBS with MgCl2, pH 7.4, 25 °C.

Assay [5] concerns CBA-1-strand21 (DNA, aptamer) GGGGGTGGGTCGGGAGGGAACCCCCTTGGGGGTGCGGG
Briefly: ITC. Particulars: 140 mM NaCl, 2.5 mM KCl, K/Na phosphate (PBS), 2.5 mM MgCl2; PBS with MgCl2, pH 7.4, 25 °C; 250 µM codeine in syringe.

For assay [6], the system named is CBA-1-3G3T (DNA, aptamer) CCCCCTTTTTCTTTATTTAAGGGGGTTGGGGGTGCTTT
Briefly: ITC. Particulars: 140 mM NaCl, 2.5 mM KCl, K/Na phosphate (PBS), 2.5 mM MgCl2; PBS with MgCl2, pH 7.4, 25 °C; 250 µM codeine in syringe.

Assay [7] concerns CBA-1 (DNA, aptamer) CCCCCTGGGTCGGGAGGGAAGGGGGTTGGGGGTGCGGG
Put plainly: UV melting at 265 nm. Particulars: 140 mM NaCl, 2.5 mM KCl, K/Na phosphate (PBS), 2.5 mM MgCl2; PBS with MgCl2, pH 7.4; 4 µM DNA, 8 µM codeine.

Assay [8] has as its system CBA-1-A15AP (DNA, aptamer, 2-aminopurine at 15) CCCCCTGGGTCGGGAGGGAAGGGGGTTGGGGGTGCGGG
Put plainly: 2-aminopurine fluorescence quenching. The note with it: 140 mM NaCl, 2.5 mM KCl, K/Na phosphate (PBS), 2.5 mM MgCl2; 1 µM codeine, 25 °C.

In assay [9] the test system is CBA-1-G34R (DNA, aptamer) CCCCCTGGGTCGGGAGGGAAGGGGGTTGGGGGTCGGG
Briefly: ITC. The note with it: 140 mM NaCl, 2.5 mM KCl, K/Na phosphate (PBS), 2.5 mM MgCl2; PBS with MgCl2, pH 7.4, 25 °C; 250 µM codeine in syringe.

Assay [10] has as its system CBA-0 (DNA, aptamer) CCCCCTGGGTCGGGAGGGAAGGGGGTTGGGGGTGCGG
Briefly: ITC. Particulars: 140 mM NaCl, 2.5 mM KCl, K/Na phosphate (PBS), 2.5 mM MgCl2; PBS with MgCl2, pH 7.4, 25 °C.

Assay [11] deals with CBA-1-1/CBA-1-2 (DNA, aptamer) CCCCCTGGGTCGGGAGGGAAGGGGGT/TGGGGGTGCGGG
Put plainly: UV melting at 265 nm. Particulars: 140 mM NaCl, 2.5 mM KCl, K/Na phosphate (PBS), 2.5 mM MgCl2; PBS with MgCl2, pH 7.4.

For assay [12], the system named is CBA-1-strand3 (DNA, aptamer) CCCCCTGGGTCGGGAGGGAAGGGGGTTTATATTGCGGG
Put plainly: ITC. The note with it: 140 mM NaCl, 2.5 mM KCl, K/Na phosphate (PBS), 2.5 mM MgCl2; PBS with MgCl2, pH 7.4, 25 °C; 250 µM codeine in syringe.

The test system of assay [13] is CBA-1 (DNA, aptamer) CCCCCTGGGTCGGGAGGGAAGGGGGTTGGGGGTGCGGG
Put plainly: ITC. Particulars: 140 mM NaCl, 2.5 mM KCl, K/Na phosphate (PBS), 2.5 mM MgCl2; PBS with MgCl2, pH 7.4, 25 °C.

Assay [14] concerns FAM-labeled CBA-0 (DNA, aptamer) CCCCCTGGGTCGGGAGGGAAGGGGGTTGGGGGTGCGG
Briefly: DMS footprinting. The note with it: 140 mM NaCl, 2.5 mM KCl, K/Na phosphate (PBS), 2.5 mM MgCl2; binding buffer, room temperature.

For assay [15], the system named is CBA-1-A14AP (DNA, aptamer, 2-aminopurine at 14) CCCCCTGGGTCGGGAGGGAAGGGGGTTGGGGGTGCGGG
Put plainly: 2-aminopurine fluorescence quenching. The note with it: 140 mM NaCl, 2.5 mM KCl, K/Na phosphate (PBS), 2.5 mM MgCl2; 1 µM codeine, 25 °C.

The test system of assay [16] is CBA-1-G34T (DNA, aptamer) CCCCCTGGGTCGGGAGGGAAGGGGGTTGGGGGTTCGGG
Put plainly: ITC. The note with it: 140 mM NaCl, 2.5 mM KCl, K/Na phosphate (PBS), 2.5 mM MgCl2; PBS with MgCl2, pH 7.4, 25 °C.

The subject of assay [17] is CBA-1-strand1 (DNA, aptamer) AAAAATGGGTCGGGAGGGAAGGGGGTTGGGGGTGCGGG
Put plainly: ITC. Particulars: 140 mM NaCl, 2.5 mM KCl, K/Na phosphate (PBS), 2.5 mM MgCl2; PBS with MgCl2, pH 7.4, 25 °C; 250 µM codeine in syringe.

The test system of assay [18] is CBA-1-1/CBA-1-2 (DNA, aptamer) CCCCCTGGGTCGGGAGGGAAGGGGGT/TGGGGGTGCGGG
Briefly: 1H NMR. Particulars: 140 mM NaCl, 2.5 mM KCl, K/Na phosphate (PBS), 10% D2O, 25 °C, 200 µM DNA, 400 µM codeine.

Assay [19] deals with CBA-1-G34C35R (DNA, aptamer) CCCCCTGGGTCGGGAGGGAAGGGGGTTGGGGGTGGG
Put plainly: ITC. Particulars: 140 mM NaCl, 2.5 mM KCl, K/Na phosphate (PBS), 2.5 mM MgCl2; PBS with MgCl2, pH 7.4, 25 °C; 250 µM codeine in syringe.

Assay [20] has as its system CBA-1-A20AP (DNA, aptamer, 2-aminopurine at 20) CCCCCTGGGTCGGGAGGGAAGGGGGTTGGGGGTGCGGG
Briefly: 2-aminopurine fluorescence quenching. The note with it: 140 mM NaCl, 2.5 mM KCl, K/Na phosphate (PBS), 2.5 mM MgCl2; 1 µM codeine, 25 °C.

For assay [21], the system named is CBA-1-GGC-4G4 (DNA, aptamer) CCCCCCCCTGGGGTCGGGGAGGGGAAGGGGGGGGTTGGGGGGGGTGCGGGG
Put plainly: ITC. Particulars: 140 mM NaCl, 2.5 mM KCl, K/Na phosphate (PBS), 2.5 mM MgCl2; PBS with MgCl2, pH 7.4, 25 °C.

Each structure is given as a SMILES string.

Consider `COc1ccc2c3c1O[C@H]1[C@@H](O)C=C[C@H]4[C@@H](C2)N(C)CC[C@@]341`, for which the binding entry in assay [1] is “yes”; in assay [2], “yes”; in [5] it was “no”; in [6], “no”; in [7], “yes”; in assay [8] it was “yes”. The binding result in assay [9] is listed as “no”; in assay [12] it was “no”; in assay [14] it was “yes”; in [15], “yes”; in assay [16], “weak”; in assay [17], “no”. Also, the binding entry in [18] is listed as “yes”; in assay [19], “no”; in [20] it was “yes”. Moreover, the Kd in assay [3] stood at 0.05 ± 0.02 µM; in assay [4], 0.07 ± 0.03 µM; in assay [10], 0.25 ± 0.08 µM; in assay [13], 0.07 ± 0.01 µM; in assay [21], 0.30 ± 0.17 µM. The “∆Tm” value in [11] is ~ 4 °C.

The values above are taken from article PMC5684193 (2017).
